Series [1] can be described thus: acute toxicity (LD50) in mice after oral administration. The following applies: mouse, in vivo; male NMRI-mice, oral, 50% mortality on the 7th day; read-out: LD50 per os. The class given is in vivo, mouse (male NMRI). As to the method: (§1) The acute toxicity of the compounds is determined in male NMRI-mice (body weight range 18-22 g) after oral (p.o) administration. The LD50 is defined as that dose in μmol/kg which causes a 50% mortality rate of the test animals on the 7th day after application. The calculation of the LD50 is carried out by probitanalysis (see L. Cavalli-Sforza, Grundbegriffe der Biometric, Gustav Fischer Verlag Stuttgart (1964).

For series [2], the system named is aconitin-induced arrhythmic effects. Briefly: aconitin-induced arrhythmia test (Aconitine test), oral. The class given is in vivo, rat (male Wistar). The settings on record: for minimal effective dose: Rattus norvegicus, po, 3 h, read-out: Aconitine test, effective dose per os. As to the method: The influence of the novel compound on aconitin-induced arrhythmic effects is determined on male Wistar rats (weighing 280-350 g) which are treated with an aconitin infusion according to the method of Raschak (M. Raschak, Arzneim. Forschung (Drug Research) 25 (1975) pp. 639-641). The effective dose which is given in μmol/kg, is the dose which cause a significant difference in time between the starting of the aconitin-induced arrhythmic effect in animals treated with the active ingredient and the starting of this aconitin-induced effect in an untreated control group of animals. In order to be considered effective the dose must cause a significant prolongation of the period until the aconitin-induced arrhythmic effects start, and it must be effective against at least two of the aconitin-induced arrhythmic symptoms (extrasystoles, ventricular flutter, ventricular tachycardia). The test compound is applied orally inform of a 2% suspension of tylose ^R MH 50 three hours before the aconitin-infusion is started.
As a standard dose one tenth of the LD50 in mice is used. If a test compound is effective at this dose, the dose is reduced in a following test. The statistical t-test method according to Student using logarithmic values of the effective values is used for significance testing (see Lothar Sachs, Statistische Auswertungsmethoden, Springer Verlag 1969).

Another series deals with isolated left atria. Nature of the series: prolongation of the functional refractory period (FRP), double stimulus method of Govier. The arrangement: species or system guinea pig (female albino-pirbright-white). The settings on record: Cavia porcellus, 0.3 h; isolated left atria of female guinea pigs, 18 minutes after application; read-out: FRP 125% (concentration causing prolongation of the functional refractory period to 125%).

A further series has as its system male NMRI-mice. Briefly: acute toxicity (LD50) in mice after oral administration. The series is classed as in vivo, mouse (male NMRI). The following applies: comparison in words. As to the method: as §1

Structures can show the parent of a compound that is named as a salt.

As usually defined, the LD50 is the dose at which mortality reaches 50%. Regarding `C1CCN2C[C@@H]3C[C@@H]([C@@H]([C@@H]4[C@@H]5C[C@@H](CN6CCCC[C@H]56)[C@@H]5CCCCN45)N4CCCC[C@@H]34)[C@H]2C1` [17S,17'S-bissparteine ditartrate], the 50% lethal dose (LD50) at 168 h in series [1] was over 1900 µmol/kg. Besides, in series [2], the minimal effective dose turned out to be 33 µmol/kg. Moreover, the EC (125%) with isolated left atria worked out at 5 µM.
Regarding `C1CCN2C[C@@H]3C[C@@H]([C@@H]([C@@H]4[C@@H]5C[C@@H](CN6CCCC[C@H]56)[C@@H]5CCCCN45)N4CCCC[C@@H]34)[C@H]2C1` [17S,17'S-bissparteine], the “toxicity compared with known sparteine derivatives” value in the series with male NMRI-mice is listed as “less toxic”. Besides, in series [2] (conclusion in words from table 1), the “effectiveness compared with the known tested sparteine compounds” value is on record as “more effective than the known tested sparteine compounds”. In addition, in series [2] (oral, after 3 hours, same conditions for known compounds), the “effect after oral application, after a period of 3 hours” value is listed as “retains its good effect even after a period of 3 hours”.
In the case of `CCCCCC1C2CC(CN3CCCCC23)C2CCCCN21` (stereo not drawn) [Pentyl sparteine tartrate], the LD50 at 168 h in series [1] was 1800 µmol/kg. Further, the minimal effective dose in series [2] is over 180 µmol/kg. The EC (125%) with isolated left atria was determined as 9 µM.
On the same counts, the results for `C1CCN2C[C@@H]3C[C@@H](CN4CCCC[C@@H]34)[C@H]2C1` [Sparteine sulfate] are 540 µmol/kg, over 54 µmol/kg and 34 µM.

(Values after US4415577A, “Bis-sparteine derivatives and method of using same in therapy” (Kali-Chemie Pharma GmbH, priority 1980, dated 1983).)
